The text below walks through data of ChEMBL document CHEMBL1155437, “Anti-infective discorhabdins from a deep-water alaskan sponge of the genus Latrunculia” (J Nat Prod, 2010).

The IC50 is the concentration that gives 50% inhibition. The term MIC denotes the least concentration at which growth counts as inhibited. In general, EC90 refers to the concentration needed for an effect of 90%.

Structures are written as SMILES. In brackets after ≈: the same amount, converted by molar mass. Activity calls are given as the source filed them. No cut-off for these calls is given here.

For one data set, the system named is Staphylococcus aureus. The data set is described as follows: Antibacterial activity against methicillin-resistant Staphylococcus aureus by modified NCCLS method. It is filed as functional, organism-based.
The subject of data set [1] is Mycobacterium intracellulare. The data set can be described thus: Antibacterial activity against Mycobacterium intracellular by after 4 days alamar blue assay. It is filed as functional, organism-based. (In general: The colour change of resazurin is a common sign of viable cells or microbes.)
The test system of a further data set is Hepatitis C virus. The data set can be described thus: Antiviral activity against HCV infected in human HuH7 clone B cells assessed as inhibition of viral RNA replication after 5 days by RT-PCR based replicon assay relative to control. It is filed as functional, Hepacivirus hominis. The note with it: Huh-7, 120 h. A general note: Replicon systems follow genome replication, usually without infectious particles.

The nature of data set [2]: Cytotoxicity against human HuH7 cells at 10 uM after 5 days by RT-PCR. Format: cell-based. The note with it: huh-7, 120 h.
The test system of data set [3] is Plasmodium falciparum. The data set is described as follows: Antimalarial activity against chloroquine-sensitive Plasmodium falciparum D6 assessed as parasite LDH activity after 72 hrs by malstat reagent method. Format: functional, organism-based. The note with it: D6, 72 h.
The subject of data set [4] is Plasmodium falciparum. The data set can be described thus: Antimalarial activity against chloroquine-resistant Plasmodium falciparum W2 assessed as parasite LDH activity after 72 hrs by malstat reagent method. Format: functional, organism-based. Conditions: W2, 72 h.
For another data set, the system named is Vero. The data set is described as follows: Cytotoxicity against african green monkey Vero cells by neutral red assay. Format: cell-based. The note with it: Chlorocebus sabaeus.
Data set [5] is described as follows: Selectivity index, ratio of IC50 for african green monkey (Cercopithecus aethiops) Vero cells to IC50 for chloroquine-sensitive Plasmodium falciparum D6. It is filed as toxicity, cell-based. The note with it: read-out: Ratio IC50.
Data set [6] is described as follows: Selectivity index, ratio of IC50 for african green monkey (Cercopithecus aethiops) Vero cells to IC50 for chloroquine-resistant Plasmodium falciparum W2. Format: toxicity, cell-based. The note with it: read-out: Ratio IC50.
Data set [7] concerns Mycobacterium tuberculosis. The data set can be described thus: Antituberculosis activity against Mycobacterium tuberculosis H37Rv after 4 days by alamar blue assay. It is filed as functional, organism-based. The note with it: 96 h.
Data set [8] has as its system Mus musculus. The data set is described as follows: Toxicity in Plasmodium berghei infected mice (Mus musculus) at 10 mg/kg, perorally or subcutaneously administered 2 hrs post infection. It is filed as organism-based. Details: dose 10 mg/kg, route oral. The note with it: in vivo, po.
Data set [9] relates to Mus musculus. The data set is described as follows: Toxicity in Plasmodium berghei infected mice (Mus musculus) assessed as loss of weight at 10 mg/kg, perorally or subcutaneously QD on day 1. Format: organism-based. Details: dose 10 mg/kg, route oral. The note with it: in vivo, po.
For data set [10], the system named is Mus musculus. The data set can be described thus: Toxicity in Plasmodium berghei infected mice (Mus musculus) assessed as reduction of movements at 10 mg/kg, perorally or subcutaneously QD on day 1. Format: organism-based. Also noted: dose 10 mg/kg, route oral. The note with it: in vivo, po.
The subject of data set [11] is Mus musculus. The data set can be described thus: Toxicity in Plasmodium berghei infected mice (Mus musculus) assessed as dehydration at 10 mg/kg, perorally or subcutaneously QD on day 1. Details: dose 10 mg/kg, route oral. Format: organism-based. The note with it: in vivo, po.
Data set [12] concerns Mus musculus. The data set is described as follows: Toxicity in Plasmodium berghei infected mice (Mus musculus) assessed as mortality at 10 mg/kg, perorally or subcutaneously QD for 2 days measured on day 3. Format: organism-based. Details: dose 10 mg/kg, route oral. The note with it: in vivo, po, 48 h.
Data set [13] concerns Mus musculus. The data set is described as follows: Toxicity in Plasmodium berghei infected mice (Mus musculus) assessed as mortality at 10 mg/kg, perorally or subcutaneously QD for 2 days measured on day 4. It is filed as organism-based. Details: dose 10 mg/kg, route oral. Conditions: in vivo, po, 48 h.
For a further data set, the system named is Plasmodium berghei. The data set is described as follows: Antimalarial activity against Plasmodium berghei infected in mice (Mus musculus) assessed as parasitaemia at 10 mg/kg, perorally or subcutaneously administered 2 hrs post infection daily for 2 days measured on day 5 by microscopy. Format: functional. The note with it: route oral.
For data set [14], the system named is Mus musculus. The data set is described as follows: Toxicity in Plasmodium berghei infected mice (Mus musculus) at 10 mg/kg, perorally or subcutaneously QD for 2 days measured on day 2. Format: organism-based. Also noted: dose 10 mg/kg, route oral. Conditions: in vivo, po, 48 h.
The test system of data set [15] is Mus musculus. The data set can be described thus: Toxicity in Plasmodium berghei infected mice (Mus musculus) assessed as loss of weight at 10 mg/kg, perorally or subcutaneously QD for 2 days measured on day 5. Format: organism-based. Also noted: dose 10 mg/kg, route oral. The note with it: in vivo, po, 48 h.
Data set [16] deals with Mus musculus. The data set can be described thus: Toxicity in Plasmodium berghei infected mice (Mus musculus) at 10 mg/kg, perorally or subcutaneously QD for 2 days measured on day 5. It is filed as organism-based. Details: dose 10 mg/kg, route oral. The note with it: in vivo, po, 48 h.
[17] abbreviates: Mycobacterium intracellulare, 96 h.
[18] abbreviates: Mycobacterium intracellulare, 96 h, read-out: IC50.

In the data set on Staphylococcus aureus, `O=C(O)c1cn(C2CC2)c2cc(N3CCNCC3)c(F)cc2c1=O` [CIPROFLOXACIN] had an IC50 of 1.1 µM and an MIC of 3 µM (≈ 0.994 µg/mL). In addition, in [1] (setting [17]), 1.5 µM (≈ 0.497 µg/mL) was the least that counted as inhibitory (MIC).
With `O=C1C2=C(C3=NCCc4c[nH]c1c43)C1(C=C(Br)C(O)C(Br)=C1)CCN2` (configuration not stated) [DIHYDRODISCORHABDIN C], the EC90 with Hepatitis C virus is < 10 µM. The Activity result was “Active” in data set [2]; “Non-toxic” in the data set with Mus musculus [8]; “Toxic” in the data set with Mus musculus [9]; “Toxic” in the data set on Mus musculus [10]; “Toxic” with Mus musculus [11]; “Toxic” in the data set on Mus musculus [12]. For the same compound, the Activity entry in the data set with Mus musculus [13] was “Toxic”. The IC50 in the data set with Plasmodium falciparum [3] is 0.17 µM; with Plasmodium falciparum [4] it was 0.13 µM; in the data set with Vero, 9.8 µM; in the data set on Staphylococcus aureus it was 13 µM; in data set [1], “Not Active”. The selectivity ratio in data set [5] came to 58; in [6], 75. Moreover, the MIC entry in data set [1] is “inactive”. Further, it took 14 µM (≈ 6.51 µg/mL) to inhibit growth in [7] (MIC).
With `O=C1C(Br)=CC2(C=C1Br)CCNC1=C2C2=NCCc3c[nH]c(c32)C1=O` [DISCORHABDIN C], the EC90 with Hepatitis C virus was < 10 µM. Further, in data set [2], the outcome was Active. For the same compound, the IC50 in the data set with Plasmodium falciparum [3] worked out at 2.8 µM; in the data set with Plasmodium falciparum [4], 2 µM; in the data set with Vero, 2.8 µM; in the data set with Staphylococcus aureus, 3.2 µM; in data set [1] (setting [18]) it was 0.13 µM; in data set [7], 6.8 µM. Also, the selectivity ratio in data set [5] is 1; in data set [6] it was 1.4. For the same compound, the figures for the MIC (in the data set with Staphylococcus aureus; in [1] (setting [17]); in [7]) were 11 µM (≈ 5.09 µg/mL), 0.17 µM (≈ 0.0787 µg/mL) and 8 µM (≈ 3.71 µg/mL), respectively.
`O=C1C[C@H]2S[C@H]3C[C@]2(C=C1Br)C1=C(N3)C(=O)c2[nH]cc3c2C1=NCC3` [DISCORHABDINE A]: in the data set with Hepatitis C virus, the EC90 is < 10 µM. The Activity entry in data set [2] is on record as “Active”; in the data set on Plasmodium berghei, 6.6%; in the data set with Mus musculus [8], “Non-toxic”; in the data set with Mus musculus [14] it was “Toxic”; in the data set with Mus musculus [15] it was > 25%; with Mus musculus [16], “Toxic”. The half-maximal inhibitory concentration (IC50) in the data set on Plasmodium falciparum [3] was found to be 0.053 µM; in the data set with Plasmodium falciparum [4] it was 0.053 µM; with Vero it was 6.8 µM; in the data set on Staphylococcus aureus it was 4.8 µM; in data set [1] (setting [18]), 0.36 µM. In addition, the selectivity ratio in data set [5] and in data set [6] was 130 in each case. The results for the MIC (in the data set with Staphylococcus aureus; in data set [1] (setting [17]); in data set [7]) were 12 µM (≈ 5 µg/mL), 0.74 µM (≈ 0.308 µg/mL) and 7.7 µM (≈ 3.21 µg/mL), respectively.
In turn, `NNC(=O)c1ccncc1` [ISONIAZID] had an MIC in data set [7] of 3.2 µM (≈ 0.439 µg/mL).
On the same count and under the same terms, the result for `CO[C@H]1/C=C/O[C@@]2(C)Oc3c(C)c(O)c4c(O)c(c(/C=N/N5CCN(C)CC5)c(O)c4c3C2=O)NC(=O)/C(C)=C\C=C\[C@H](C)[C@H](O)[C@@H](C)[C@@H](O)[C@@H](C)[C@H](OC(C)=O)[C@@H]1C` [RIFAMPIN] reads 0.21 µM (≈ 0.173 µg/mL).
